Reference: patent US12715851B2, “4′-substituted analogues of fisetin and their use in the treatment of cancer” (Stellenbosch University, priority 2020, dated 2026)
“Also recorded” adds a separate entry of the source.

How the values were obtained:
[1] = system: A549 lung cancer cell line; assay: MTT cell proliferation assay, cytotoxicity after 48 h treatment; format: cell-based, human; conditions: for activity against lung cancer cell lines compared with the parent Fisetin: A549 and/or H1299; for variation in cytotoxicity with A-ring substitution: A549, 4′-Br analogues
Experimental: These 4′-substituted Fisetin analogues were initially screened for cytotoxicity against the A549 lung cancer cell line following a 48 h treatment period. Cytotoxicity IC50's were quantified using the MTT cell proliferation assay. The compounds were not found to interfere with the assay by causing an increase in background absorbance, no correlation was found between the lipophilicity and cytotoxicity at this position, and the substituent size was also not found to be important.

[2] = cited from earlier work
H1299 lung cancer cells [3] = assay: Cytotoxicity / cell viability of H1299 cells; format: cell-based, human; conditions: 4′-Br analogues
Source text: Analogues were also synthesised to all contain Br in the B-ring 4′-position, and in which the A-ring substitution pattern alone was varied. […] Based on the strong activity of analogue 3c, it was selected together with analogues 3a and 3e for further mechanistic evaluation in lung cancer cells.

A549 cells [4] = assay: Trypan blue cell exclusion assay, cell proliferation and death; format: cell-based; conditions: Homo sapiens, A549, 48 h, read-out: IC50 concentration
Experimental: (§1) To evaluate the effect of Fisetin analogues 3a, 3c and 3e on cell proliferation and death of human lung cancer cells, trypan blue cell exclusion assays were performed. A549 and H1299 cancer cells were treated with different concentrations of three selected Fisetin analogues for 48 h. The Fisetin analogues decreased the viability of cells and caused cell death in both the cell lines in a concentration dependent fashion. A549 and H1299 cells were treated with 5, 10 and 20 μM of Fisetin analogues for 48 h. All three analogues decreased cell proliferation and induced cell death.

H1299 lung cancer cells [5] = assay: as above; format: cell-based; conditions: Homo sapiens, NCI-H1299, H1299, 48 h, read-out: IC50 concentration
Experimental: as §1

A549 cells [6] = assay: Western blot of signalling, cell cycle and apoptosis markers; format: cell-based, human; conditions: IC50 concentration and 20 μM
Source text: (§2) Similarly, in H1299 cells analogue 3a induced a 11.7 to 14.9% cell death (FIG. 4D right) compared to 3.8% in control cells. Analogue 3c (FIG. 4E right) and analogue 3e (FIG. 4F right) induced cell death of 8.2 to 15.1% and 8.8 to 16.6% respectively. For western blot experiments, two concentrations were used, i.e. the IC50 concentration and the next higher concentration utilized for cell proliferation for each cell line.
The expression of pro-oncogenic signalling molecules, which are involved in proliferation and survival of cancer cells, were evaluated.
The effect of the Fisetin analogues on molecular markers of apoptosis was assessed.

H1299 cells = assay: as above; format: cell-based, human
Source text: as §2
In H1299 cells (FIG. 4H), the higher concentrations of all three Fisetin analogues decreased the expression of pErk1/2. […]
The decreased expression of these proteins explains the decreased cell proliferation in both A549 and H1299 cells. […] Consistent with A549 data, all three the Fisetin analogues decreased the expression of anti-apoptotic protein Bcl-2 at both the concentrations. In H1299 cells, all the analogues increased cleaved Caspase-3 compared to control untreated cells. Thus, modulation of apoptosis regulatory proteins has caused apoptosis in both A549 and H1299 cells by the tested Fisetin analogues.

A549 [7] = assay: Cell cycle distribution, propidium iodide flow cytometry; format: cell-based, human; conditions: 10 & 20 μM, 48 h
Experimental: (§3) To examine the effect of Fisetin analogues on cell cycle regulation, cells were treated with different concentrations of Fisetin analogues (5, 10 & 20 μM) for 48 h, then stained with propidium iodide and subjected to flow cytometry. All three of the tested Fisetin analogues induced G2/M phase cell cycle arrest in A549 (FIGS. 5A-5C) and H1299 human lung cancer cells (FIGS. 5D-5F).

[8] = system: H1299 human lung cancer cells; assay: as above; format: cell-based; conditions: 48 h; for G2/M phase arrest: H1299
Experimental: as §3

A549 [9] = assay: Apoptosis assay; format: cell-based, human; conditions: 48 h, control cells 4.7%
Source text: (§4) In A549, analogue 3a induced 8.2 and 11.2% apoptosis, analogue 3c induced 13.4 and 17.2% apoptosis, and analogue 3e induced 10.6 to 19.5% apoptosis compared to 4.7% in control cells (FIG. 6A).

H1299 cancer cells = assay: Apoptosis assay; format: cell-based, human; conditions: 48 h
Source text: [Worded in the source for another cell line; used here, by the source, with some conditions changed.] as §4

CS(=O)(=O)c1ccc(-c2oc3cc(O)ccc3c(=O)c2O)cc1 [analogue 3p, 4′-Methylsulfone-3,7-dihydroxyflavone]
cytotoxicity, in words ([1]; A549, MTT, 48 h): particularly active | activity against lung cancer cell lines compared with the parent Fisetin [1]: substantially more active

O=c1c(O)c(-c2ccc(O)c(O)c2)oc2cc(O)cc(O)c12 [quercetin]
pKa of the 4′-hydroxyl group [2]: ~ 9.4 | pKa of the 7-hydroxyl group ([2]; most acidic position): ~ 7.3

COCOc1ccc2c(=O)c(O)c(-c3ccc(Br)cc3)oc2c1 [analogue 3b, 4′-Bromo-3-hydroxy-7-methoxymethoxyflavone]
variation in cytotoxicity with A-ring substitution [1]: little variation in cytotoxicity | variation in cytotoxicity with A-ring substitution (H1299 lung cancer cells [3]): little variation in cytotoxicity

COc1ccc(-c2oc3cc(O)ccc3c(=O)c2O)cc1 [analogue 3m, 4′-Methoxy-3,7-dihydroxyflavone]
activity compared to that predicted by the para-Hammett constant ([1]; A549, MTT, 48 h): enhanced activity compared to that predicted by the para-Hammett constant

O=c1c(O)c(-c2ccc(Br)cc2)oc2ccccc12 [analogue 3a, 4′-Bromo-3-hydroxyflavone]
IC50 (A549 cells [4]): 11.9 µM | IC50 (H1299 lung cancer cells [5]): 4.5 µM | cleaved caspase-3 (A549 cells [6]): increased the cleavage of caspase-3 significantly | expression of p21 (A549 cells [6]): increased the expression of p21 marginally at both the concentrations | expression of phospho Cdc-2 (A549 cells [6]): slightly decreased the phospho form of Cdc-2 at higher concentration | expression of phospho-Erk1/2 (A549 cells [6]): decreased the expression of phospho-Erk1/2 significantly at both the concentrations | expression of pro-apoptotic protein Bax (A549 cells [6]): slightly increased the expression of pro-apoptotic protein Bax | total Stat-3 expression (A549 cells [6]): not affected | total form of Akt (A549 cells [6]): slightly downregulated | total form of Erk1/2 (A549 cells [6]): not affected | Phospho-Cdc-2 expression (H1299 cells; IC50 concentration and 10 μM): marginally decreased | Total Cdc-2 (H1299 cells; IC50 concentration and 10 μM): marginally affected by higher concentration | expression of Bax (H1299 cells; IC50 concentration and 10 μM): slightly higher | expression of phospho Akt (H1299 cells; IC50 concentration and 10 μM): did not affect the expression of phospho and total Akt at both the concentrations | expression of phospho-EGFR (H1299 cells; IC50 concentration and 10 μM): lower concentration of analogue 3a did not affect the expression of both phospho and total EGFR; also recorded: higher concentration of analogue 3a significantly decreased the expression of both phospho and total EGFR | expression of total Akt (H1299 cells; IC50 concentration and 10 μM): did not affect the expression of phospho and total Akt at both the concentrations | expression of total EGFR (H1299 cells; IC50 concentration and 10 μM): lower concentration of analogue 3a did not affect the expression of both phospho and total EGFR; also recorded: higher concentration of analogue 3a significantly decreased the expression of both phospho and total EGFR | G2/M phase arrest (A549 [7]): induced G2/M phase arrest in both the cell lines significantly | G2/M phase arrest ([8]; 10 & 20 μM): induced G2/M phase arrest in both the cell lines significantly | apoptosis (A549 [9]; IC50 concentration): 8.2% | apoptosis (A549 [9]; higher concentration 20 μM): 11.2% | apoptosis (H1299 cancer cells; IC50 concentration): 13.2% | apoptosis (H1299 cancer cells; higher concentration 10 μM): 17.8%

O=c1c(O)c(-c2ccc(Cl)cc2)oc2cc(O)ccc12 [analogue 3g, 4′-Chloro-3,7-dihydroxyflavone]
cytotoxicity, in words ([1]; A549, MTT, 48 h): particularly active | activity against lung cancer cell lines compared with the parent Fisetin [1]: substantially more active

O=c1c(O)c(-c2ccc(Br)cc2)oc2ccc(O)cc12 [analogue 3e, 4′-Bromo-3,6-dihydroxyflavone]
variation in cytotoxicity with A-ring substitution [1]: little variation in cytotoxicity | variation in cytotoxicity with A-ring substitution (H1299 lung cancer cells [3]): little variation in cytotoxicity | IC50 (A549 cells [4]): 12.3 µM | IC50 (H1299 lung cancer cells [5]): 3.1 µM | cleaved caspase-3 (A549 cells [6]): both the concentrations of analogue 3e increased the cleaved caspase-3 marginally | expression of p21 (A549 cells [6]): increased the p21 expression to a much higher level at both the concentrations | expression of phospho Cdc-2 (A549 cells [6]): IC50 concentration decreased the expression to some extent; also recorded: the higher concentrations decreased the phospho-Cdc-2 expression significantly | expression of phospho-Erk1/2 (A549 cells [6]): decreased the expression of phospho-Erk1/2 significantly at both the concentrations | expression of phospho-Stat-3 (A549 cells [6]): completely abolished the expression of p-Stat-3 | expression of pro-apoptotic protein Bax (A549 cells [6]): increased the expression of Bax with much higher potential | total Stat-3 expression (A549 cells [6]): significantly decreased the expression of total Stat-3 | total form of Akt (A549 cells [6]): decreased the expression of total Akt at both the concentrations | total form of Erk1/2 (A549 cells [6]): not affected | Phospho-Cdc-2 expression (H1299 cells; IC50 concentration and 10 μM): both concentrations of analogue 3e decreased the expression of phospho-Cdc-2 | Total Cdc-2 (H1299 cells; IC50 concentration and 10 μM): no effect | expression of Bax (H1299 cells; IC50 concentration and 10 μM): increased the expression of pro-apoptotic protein Bax | expression of phospho Akt (H1299 cells; IC50 concentration and 10 μM): significantly decrease the phospho Akt | expression of phospho-EGFR (H1299 cells; IC50 concentration and 10 μM): significantly decreased the expression of phospho-EGFR | expression of total Akt (H1299 cells; IC50 concentration and 10 μM): did not affect the total Akt | expression of total EGFR (H1299 cells; IC50 concentration and 10 μM): did not affect the expression levels of total EGFR | expression of total Erk1/2 (H1299 cells; IC50 concentration and 10 μM): decreased the expression of total Erk1/2 significantly | expression of total Stat-3 (H1299 cells; higher concentration (10 μM)): decreased the expression of total Stat-3 at higher concentrations | G2/M phase arrest (A549 [7]): induced G2/M phase arrest in both the cell lines significantly | S-phase arrest ([8]; 20 μM, cell line not given): induced S-phase arrest | G2/M phase arrest ([8]; 5 μM): induced G2/M phase arrest | G2/M phase arrest ([8]; 10 & 20 μM): induced G2/M phase arrest in both the cell lines significantly | apoptosis (A549 [9]; IC50 concentration): 10.6% | apoptosis (A549 [9]; higher concentration 20 μM): 19.5% | apoptosis (H1299 cancer cells; IC50 concentration): 12.1% | apoptosis (H1299 cancer cells; higher concentration 10 μM): 19.5%

COCOc1ccc2oc(-c3ccc(Br)cc3)c(O)c(=O)c2c1 [analogue 3d, 4′-Bromo-3-hydroxy-6-methoxymethoxyflavone]
variation in cytotoxicity with A-ring substitution [1]: little variation in cytotoxicity | variation in cytotoxicity with A-ring substitution (H1299 lung cancer cells [3]): little variation in cytotoxicity

O=c1c(O)c(-c2ccc(Br)cc2)oc2cccc(O)c12 [analogue 3f, 4′-Bromo-3,5-dihydroxyflavone]
variation in cytotoxicity with A-ring substitution [1]: little variation in cytotoxicity | variation in cytotoxicity with A-ring substitution (H1299 lung cancer cells [3]): little variation in cytotoxicity

O=c1c(O)c(-c2ccc(C(F)(F)F)cc2)oc2cc(O)ccc12 [analogue 3n, 4′-Trifluoromethyl-3,7-dihydroxyflavone]
cytotoxicity, in words ([1]; A549, MTT, 48 h): particularly active | activity against lung cancer cell lines compared with the parent Fisetin [1]: substantially more active
